Experiments:
PGRMC1 = PGRMC1 (Homo sapiens, UniProt O00264); assay: Absorption spectrum of the PGRMC1 protein (CO binding to heme); conditions: FIG. 3
Source text: FIG. 3 is the graphs showing the absorption spectrum of the PGRMC1 protein.
Furthermore, PGRMC1 (Progesterone Receptor Membrane associated Component 1) was identified as one of the molecules involved with the inhibition of fatty acid or cholesterol uptake by CO. PGRMC1 is a heme binding protein, and an absorption peak is thought to have appeared at 419 nm because CO bound to the heme of PGRMC1 (FIG. 3). […] Thus, when the PGRMC1 gene was knocked down in a cell, the uptake of a fatty acid was suppressed (FIG. 4).

[1] = 25° C.; cited from earlier work
HuH7 cell [2] = assay: LDL uptake inhibition in a cell by CO (FITC-conjugated LDL, fluorescence microscope); format: cell-based, human; conditions: FITC-conjugated LDL 8 mg/ml, 1 μM CO—Ru, 2 hours, FIG. 2
Procedure: After culturing the HuH7 cell in the same manner as above in a dish covered with a slide glass, the medium was discarded, and fluorescence-labeled FITC-conjugated LDL (Molecular Probes) was added to serum free DMEM so as to give the final concentration of 8 mg/ml to carry out the culture for 2 hours (control). Additionally, at the same time with this procedure, 1 μM of CO—Ru was added in the same manner as above to carry out the analysis. After culturing, the medium was discarded, the cell was washed 3 times with PBS and DAPI reagent (2 ng/ml; Wako Pure Chemical Industries, Ltd.) was added to react for 5 minutes. The observation was carried out using a fluorescence microscope, whereby FITC-LDL derived Green fluorescence as the […] and DAPI derived Blue fluorescence were detected. […] On the other hand, in the cell to which CO—Ru was added, the margin of blue stained area is not stained green.

[3] = system: human hepatoma cell line HuH7 cell; assay: Stearic acid uptake inhibition in a cell by CO (Nile Red staining, fluorescence microscope); format: cell-based; conditions: 400 μM stearic acid, 1 μM test substance, 12 hours, FIG. 1
Procedure: The human hepatoma cell line HuH7 cell was seeded in a 6-well plate (Iwaki) covered with a slide glass (1 cm^2; matsunami glass) and cultured using DMEM+10% FCS in a CO2 incubator overnight. After the culture, the medium was discarded, 1% BSA (Wako Pure Chemical Industries, Ltd.) wherein stearic acid (sigma) was dissolved in serum free DMEM to give a final concentration of 400 μM was added thereto, and the cell was cultured again for 12 hours in a CO2 incubator. Further, as a CO sustained-release drug, 1 μM of CO—Ru (Sigma CORM2 ([Ru(CO)3Cl2]2)) was used) or 1 μM of ruthenium complex as a control was added together with a fatty acid to carry out the culture. Subsequently, the medium was discarded, the cell was washed 3 times with PBS, and Nile Red reagent (sigma) dissolved in PBS on the slide glass so as to be 100 ng/ml was added to react for 5 minutes, thereby staining the fatty acid. Further, the cell was washed 3 times with PBS, DAPI reagent (2 ng/ml; Wako Pure Chemical Industries, Ltd.) was added to react for 5 minutes, thereby staining the nucleus. The nucleus was observed using a fluorescence microscope, whereby Nile Red derived Green fluorescence as the fatty acid and DAPI derived Blue fluorescence were detected. […]

HuH7 cell [4] = assay: Stearic acid and palmitic acid uptake in a cell wherein the PGRMC1 gene is knocked down by siRNA; format: cell-based, human; conditions: HuH7 cell transfected with siRNA
Procedure: In the experiment of Example 1, siRNA (sequence: […]) (SEQ ID NO: 1) targeting PGRMC1 was transfected to the cell line HuH7 cell derived from human hepatocellular carcinoma by the lipofection method (Lipofectamin 2000, INVITROGEN Corporation) to knockdown the PGMRMC1 gene. In the same manner as in Example 1, 1% BSA (Wako Pure Chemical Industries, Ltd.) wherein stearic acid (sigma) or palmitic acid was dissolved to give the final concentration of 400 μM was added to the HuH7 cell wherein the PGRMC1 gene was knocked down, and the cell was cultured. The medium was discarded, the cell was washed 3 times with PBS, and Nile Red reagent (sigma) dissolved in PBS on the slide glass so as to be 100 ng/ml was added to react for 5 minutes, thereby staining the fatty acid. Further, the cell was washed 3 times with PBS, DAPI reagent (2 ng/ml; Wako Pure Chemical Industries, Ltd.) was added to react for 5 minutes, thereby staining the nucleus. The nucleus was observed using a fluorescence microscope, whereby Nile Red derived Green fluorescence as the fatty acid and DAPI derived Blue fluorescence were detected. […] On the other hand, when palmitic acid (FIG. 4C) or stearic acid (FIG. 4D) was added to the cell wherein the PGRMC1 gene was knocked down, the margin of blue stained area is not stained green.

Sequence of PGRMC1 (O00264 whole entry, species assumed): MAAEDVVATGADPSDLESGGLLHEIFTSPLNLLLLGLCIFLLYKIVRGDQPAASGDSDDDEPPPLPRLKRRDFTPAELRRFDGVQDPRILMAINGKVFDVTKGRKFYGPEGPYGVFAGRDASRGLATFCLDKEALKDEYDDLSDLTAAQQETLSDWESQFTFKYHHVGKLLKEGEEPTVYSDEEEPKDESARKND

## [C-]#[O+] [CO, carbon monoxide]
PGRMC1
  absorption peak on CO binding to the heme of PGRMC1: 419 nm
[1]
  amount of CO that can be dissolved in aqueous solution: about 21.4 mL per liter

## [C-]#[O+].[C-]#[O+].[C-]#[O+].[C-]#[O+].[C-]#[O+].[C-]#[O+].[Cl][Ru][Cl].[Cl][Ru][Cl] [CO—Ru, [Ru(CO)3Cl2]2]
HuH7 cell [2]
  uptake of LDL in the cell (FITC-LDL green fluorescence): the uptake of LDL was inhibited
[3]
  uptake of stearic acid in the cell (green Nile Red staining): the uptake of stearic acid was inhibited

## siRNA: siRNA (sequence: GAUGUGACCAAAGGCCCGCAAAUUCU) targeting PGRMC1 (listed as RNA, chemistry not given here)
HuH7 cell [4]; 400 μM palmitic acid, FIG. 4C
  uptake of palmitic acid in the PGRMC1 knockdown cell: inhibited
HuH7 cell [4]; 400 μM stearic acid, FIG. 4D
  uptake of stearic acid in the PGRMC1 knockdown cell: inhibited

— patent US20140099385A1, “INHIBITION OF FATTY ACID AND C[…] BY CARBON MONOXIDE (CO)” (priority 2011, published 2014)
